Measured values published in patent US20250000881A1, “TREATMENT OF TREATMENT RESISTANT […] PSILOCYBIN” (COMPASS […], priority 2021, published 2025).

Test system: adult subjects with TRD
Assay: Phase 2b trial in TRD: safety, treatment emergent adverse events
Format: in vivo, human
Text: Another objective was to evaluate the safety and tolerability of psilocybin in subjects with TRD based on AEs, changes in vital signs, and suicidal ideation/behaviour (measured using the Columbia-Suicide Severity Rating Scale [C-SSRS]) score at all visits.
Throughout the course of the study, all adverse events (AEs) were monitored and recorded and included the AE's description, start and end date, seriousness, severity, action taken, and relationship to the treatment. If AEs occurred, the first concern was the safety of the study subjects.
An AE can therefore be any unfavorable and unintended sign (including an abnormal laboratory finding, for example), symptom, or disease temporally associated with the use of a medicinal product, whether considered related to the medicinal product.
AEs were coded by Preferred Term (PT) using the Medical Dictionary for Regulatory Activities (MedDRA) classification. All reported AEs with onset or worsening after the administration of study medication were included in the analysis. The incidence of AEs was summarized by treatment group, and by severity and relationship to psilocybin. Serious AEs and AEs leading to withdrawal from the study will be tabulated.
A TEAE is defined as any AE that has an onset on or after the dose of psilocybin, or any pre-existing condition that has worsened on or after the dose of psilocybin.
The incidence of TEAEs and treatment-related AEs were summarized by maximum severity and most-related relationship to psilocybin by MedDRA primary system organ class and PT. The summary included the total number and percentage of subjects reporting an event.

## CN(C)CCc1c[nH]c2cccc(OP(=O)(O)O)c12 [COMP360, psilocybin]
1 mg (N = 79)
  Any TESAE, participants: 1 (1.3) n (%)
  TEAE Abdominal pain upper, participants: 1 (1.3) n (%)
  TEAE Anxiety, participants: 3 (3.8) n (%)
  TEAE Back pain, participants: 3 (3.8) n (%)
  TEAE Depressed mood, participants: 4 (5.1) n (%)
  TEAE Depression, participants: 5 (6.3) n (%)
  TEAE Dizziness, participants: 1 (1.3) n (%)
  TEAE Euphoric mood, participants: 4 (5.1) n (%)
  TEAE Fatigue, participants: 7 (8.9) n (%)
  TEAE Headache, participants: 20 (25.3) n (%)
  TEAE Insomnia, participants: 14 (17.7) n (%)
  TEAE Irritability, participants: 1 (1.3) n (%)
  TEAE Mood altered, participants: 1 (1.3) n (%)
  TEAE Myalgia, participants: 1 (1.3) n (%)
  TEAE Nausea, participants: 4 (5.1) n (%)
  TEAE Panic reaction, participants: 1 (1.3) n (%)
  TEAE Paraesthesia, participants: 1 (1.3) n (%)
  TEAE Suicidal ideation, participants: 4 (5.1) n (%)
  TEAE Thinking abnormal, participants: 0 n (%)
  TESAE Adjustment disorder with anxiety, participants: 0 n (%)
  TESAE Adjustment disorder with mixed anxiety and depressed mood, participants: 0 n (%)
  TESAE Depression, participants: 0 n (%)
  TESAE Drug withdrawal syndrome*, participants: 0 n (%)
  TESAE Hospitalisation, participants: 0 n (%)
  TESAE Intentional self-injury, participants: 1 (1.3) n (%)
  TESAE Suicidal behaviour, participants: 0 n (%)
  TESAE Suicidal ideation, participants: 0 n (%)
1 mg group
  Patients with TEAEs of suicidal ideation, suicidal behaviour and intentional self-injury: four
  Patients with TESAEs of suicidal ideation, suicidal behaviour and intentional self-injury: one
10 mg (N = 75)
  Any TESAE, participants: 6 (8.0) n (%)
  TEAE Abdominal pain upper, participants: 2 (2.7) n (%)
  TEAE Anxiety, participants: 13 (17.3) n (%)
  TEAE Back pain, participants: 0 n (%)
  TEAE Depressed mood, participants: 5 (6.7) n (%)
  TEAE Depression, participants: 6 (8.0) n (%)
  TEAE Dizziness, participants: 1 (1.3) n (%)
  TEAE Euphoric mood, participants: 5 (6.7) n (%)
  TEAE Fatigue, participants: 5 (6.7) n (%)
  TEAE Headache, participants: 16 (21.3) n (%)
  TEAE Insomnia, participants: 11 (14.7) n (%)
  TEAE Irritability, participants: 2 (2.7) n (%)
  TEAE Mood altered, participants: 3 (4.0) n (%)
  TEAE Myalgia, participants: 2 (2.7) n (%)
  TEAE Nausea, participants: 7 (9.3) n (%)
  TEAE Panic reaction, participants: 1 (1.3) n (%)
  TEAE Paraesthesia, participants: 4 (5.3) n (%)
  TEAE Suicidal ideation, participants: 5 (6.7) n (%)
  TEAE Thinking abnormal, participants: 4 (5.3) n (%)
  TESAE Adjustment disorder with anxiety, participants: 0 n (%)
  TESAE Adjustment disorder with mixed anxiety and depressed mood, participants: 0 n (%)
  TESAE Depression, participants: 1 (1.3) n (%)
  TESAE Drug withdrawal syndrome*, participants: 0 n (%)
  TESAE Hospitalisation, participants: 1 (1.3) n (%)
  TESAE Intentional self-injury, participants: 2 (2.7) n (%)
  TESAE Suicidal behaviour, participants: 0 n (%)
  TESAE Suicidal ideation, participants: 2 (2.7) n (%)
10 mg group
  Patients with TEAEs of suicidal ideation, suicidal behaviour and intentional self-injury: six
  Patients with TESAEs of suicidal ideation, suicidal behaviour and intentional self-injury: four
25 mg (N = 79)
  Any TESAE, participants: 5 (6.3) n (%)
  TEAE Abdominal pain upper, participants: 4 (5.1) n (%)
  TEAE Anxiety, participants: 7 (8.9) n (%)
  TEAE Back pain, participants: 6 (7.6) n (%)
  TEAE Depressed mood, participants: 3 (3.8) n (%)
